Data taken from US12187752B2, “Solid forms and combination compositions comprising a beta-lactamase inhibitor and uses thereof” (priority 2017, dated 2025).
≈ marks a conversion by molar mass, not a printed value. Entries after “also recorded” stand apart in the source; their conditions may differ. Structures can show the parent of a compound that is named as a salt. Where two headings read alike, the source gives them in different places. Blank lines part the entries; values can stand above or below the molecule they belong to.

Key:
[1] = Solubility of Compound 1-dihydrochloride in IPA/water mixtures; format: physicochemical; settings: IPA/water mixture, aqueous with cosolvent or surfactant or cyclodextrin, thermodynamic from solid
Procedure: In order to design a re-crystallization process for Compound 1-dihydrochloride salt from water as solvent and IPA as anti-solvent, the solubility of the API in these combinations were determined. Suspensions in various water/IPA mixtures were prepared and incubated for 24 hours at 5°, 25°, 40° and 50° C. Upon completion of the incubation time the solids were separated from the mother liquors by centrifugation and filtration and the concentration of Compound 1 in solution was determined by HPLC analysis. The remaining solids were analyzed by HT-XRPD.

[2] = Physical stability of Compound 1-dihydrochloride at four temperature/RH conditions; format: physicochemical
Procedure: A physical stability study of Compound 1-dihydrochloride (mixture of Form 1 and Form 2) was conducted. A solid sample of Compound 1-dihydrochloride was incubated under four relative humidity and temperature conditions: 5° C./ambient RH, 25° C./60% RH, 30° C./65% RH and 40° C./75% RH. At regular intervals, the compound was analyzed by HR-XRPD and TGMS. […] The water content is in line with the monohydrate nature of Compound 1-dihydrochloride Form 1. The TGMS analyses recorded for the 2 weeks and 1-month incubation is also along the 3.8% of water (1 molecule of water per molecule of API).

[3] = Stability of aqueous solutions of combination formulation at pH 5.0; format: physicochemical; settings: pH 5.0 at 25° C.
[4] = tested on: Elizabethkingia meningoseptica; assay: MIC testing, Elizabethkingia meningoseptica; format: cell-based; settings: for MIC90 / MIC50: Elizabethkingia meningoseptica
[5] = tested on: Stenotrophomonas maltophilia; assay: MIC testing, Stenotrophomonas maltophilia; format: cell-based; settings: for MIC50 / MIC90: Stenotrophomonas maltophilia
From the text: Stenotrophomonas maltophilia is a Gram negative bacillus. It is an opportunistic MDR pathogen. It has been linked to infections with high morbidity and mortality in severely immunocompromised and debilitated individuals.

Pseudomonas aeruginosa [6] = assay: MIC testing, Pseudomonas aeruginosa isolates non-susceptible to meropenem; format: cell-based; settings: for % S@8: 507 isolates non-susceptible to meropenem; for MIC50 / MIC90: Pseudomonas aeruginosa
Pseudomonas aeruginosa [7] = assay: MIC testing, Pseudomonas aeruginosa isolates non-susceptible to cefepime; format: cell-based; settings: for % S@8: 554 isolates non-susceptible to cefepime; for MIC50 / MIC90: Pseudomonas aeruginosa
[8] = Polymorph and hydrate screen: physical stability of solid forms (AAC, drying); format: physicochemical; settings: 40° C. and 75% RH for 2 days
Procedure: The solids obtained from the various crystallization experiments were analyzed by High Throughput XRPD (HT-XRPD). If relevant, the mother liquors were allowed to evaporate completely, and the remaining solids were analyzed by HT-XRPD. Subsequently, all solids were exposed to accelerated aging conditions for 48 hours at 40° C. and 75% RH (AAC).
From the polymorph screen, four novel diffractograms were identified in addition to the two known forms of Compound 1-dihydrochloride, Form 1 and Form 2. Form 1 was the most abundant solid form found in this polymorph screen. The novel diffractograms were designated Forms 3, 4, 5 and 6. All these forms were found with low frequency and were poorly crystalline. […] The HT-XRPD patterns of the new Forms 3, 4, 5 and 6 are shown in FIG. 12, FIG. 13, FIG. 14, and FIG. 15, respectively.
After completion of the equilibration time, the remaining solids were analyzed by HT-XRPD dry under ambient conditions and dried under vacuum. The mother liquors were analyzed by Karl Fisher titration for water content determination. […] The solutions from these experiments were evaporated under vacuum (200 mBar) and the obtained dried solids analyzed by HT-XRPD. All the solids were then exposed to 40° C. and 75% RH for two days.

- solubility at 24 h ([1]; 5 °C, IPA/H2O (40:60), 5° C.): 271 mg/mL
- solubility at 24 h ([1]; 5 °C, IPA/H2O (50:50), 5° C.): 217 mg/mL
- solubility at 24 h ([1]; 5 °C, IPA/H2O (60:40), 5° C.): 129 mg/mL
- solubility at 24 h ([1]; 5 °C, IPA/H2O (70:30), 5° C.): 78.6 mg/mL
- solubility at 24 h ([1]; 5 °C, IPA/H2O (80:20), 5° C.): 28 mg/mL
- solubility at 24 h ([1]; 5 °C, IPA/H2O (90:10), 5° C.): 4.2 mg/mL
- solubility at 24 h ([1]; 25 °C, IPA/H2O (40:60), 25° C.): 429 mg/mL
- solubility at 24 h ([1]; 25 °C, IPA/H2O (50:50), 25° C.): 336 mg/mL
- solubility at 24 h ([1]; 25 °C, IPA/H2O (60:40), 25° C.): 205 mg/mL
- solubility at 24 h ([1]; 25 °C, IPA/H2O (70:30), 25° C.): 101 mg/mL
- solubility at 24 h ([1]; 25 °C, IPA/H2O (80:20), 25° C.): 41.7 mg/mL
- solubility at 24 h ([1]; 25 °C, IPA/H2O (90:10), 25° C.): 4.2 mg/mL
- solubility at 24 h ([1]; 40 °C, IPA/H2O (40:60), 40° C.): 567 mg/mL
- solubility at 24 h ([1]; 40 °C, IPA/H2O (50:50), 40° C.): 454 mg/mL
- solubility at 24 h ([1]; 40 °C, IPA/H2O (60:40), 40° C.): 424 mg/mL
- solubility at 24 h ([1]; 40 °C, IPA/H2O (70:30), 40° C.): 189 mg/mL
- solubility at 24 h ([1]; 40 °C, IPA/H2O (80:20), 40° C.): 81 mg/mL
- solubility at 24 h ([1]; 40 °C, IPA/H2O (90:10), 40° C.): 5.6 mg/mL
- solubility at 24 h ([1]; 50 °C, IPA/H2O (40:60), 50° C.): 714 mg/mL
- solubility at 24 h ([1]; 50 °C, IPA/H2O (50:50), 50° C.): 528 mg/mL
- solubility at 24 h ([1]; 50 °C, IPA/H2O (60:40), 50° C.): 440 mg/mL
- solubility at 24 h ([1]; 50 °C, IPA/H2O (70:30), 50° C.): 235 mg/mL
- solubility at 24 h ([1]; 50 °C, IPA/H2O (80:20), 50° C.): 102 mg/mL
- solubility at 24 h ([1]; 50 °C, IPA/H2O (90:10), 50° C.): 7.2 mg/mL
- Solid form after three days exposure ([2]; 5° C./ambient RH, 25° C./60% RH, 30° C./65% RH and 40° C./75% RH, HR-XRPD, starting mixture of Form 1 and Form 2): full conversion to Form 1
- Solid form upon incubation for extended periods ([2]; same four conditions, at least up to 1 month): No significant changes in the solid form
SMILES: NCCN[C@H]1CC[C@H](CC(=O)N[C@H]2Cc3cccc(C(=O)O)c3OB2O)CC1 [Compound 1-dihydrochloride, (R)-3-(2-(trans-4-(2-aminoethylamino)cyclohexyl)acetamido)-2-hydroxy-3,4-dihydro-2H-benzo[e][1,2]oxaborinine-8-carboxylic acid dihydrochloride]

SMILES: C[C@@H](O)[C@H]1C(=O)N2C(C(=O)O)=C(S[C@@H]3CN[C@H](C(=O)N(C)C)C3)[C@H](C)[C@H]12 [Meropenem, meropenem]
- % present, meropenem ([3]; 24 hours): 89%
- MIC90 [4]: 128 µg/mL (≈ 334 µM)
- MIC50 ([4]; N=10 strains): 64 µg/mL (≈ 167 µM)
- % S@8 ([4]; N=10 strains): 0%
- % S [5]: 0%
- MIC50 [5]: 128 µg/mL (≈ 334 µM)
- MIC90 [5]: > 128 µg/mL
- % S@8 (Pseudomonas aeruginosa [6]): 0%
- MIC50 (Pseudomonas aeruginosa [6]): 32 µg/mL (≈ 83.4 µM)
- MIC90 (Pseudomonas aeruginosa [6]; read-out: MIC90): > 128 µg/mL
- % S@8 (Pseudomonas aeruginosa [7]): 36.6%
- MIC50 (Pseudomonas aeruginosa [7]): 16 µg/mL (≈ 41.7 µM)
- MIC90 (Pseudomonas aeruginosa [7]; read-out: MIC90): > 128 µg/mL

SMILES: NCCN[C@H]1CC[C@H](CC(=O)N[C@H]2Cc3cccc(C(=O)O)c3OB2O)CC1 [Form 6]
- Physical stability upon exposure to AAC [8]: physically unstable; also recorded: conversion to Form 1 was observed; also recorded: converted to Form 1

SMILES: CO/N=C(\C(=O)N[C@@H]1C(=O)N2C(C(=O)[O-])=C(C[N+]3(C)CCCC3)CS[C@H]12)c1csc(N)n1 [Cefepime, cefepime]
- % present, cefepime ([3]; 20 hours): 99%
- MIC50 ([4]; N=10 strains): 16 µg/mL (≈ 33.3 µM)
- MIC90 ([4]; N=10 strains, read-out: MIC90): 32 µg/mL (≈ 66.6 µM)
- MIC Range ([4]; N=10 strains, in µg/mL): 16-32
- % S [5]: 20%
- MIC90 [5]: 64 µg/mL (≈ 133 µM)
- MIC50 ([5]; read-out: MIC50): 32 µg/mL (≈ 66.6 µM)
- % S@8 (Pseudomonas aeruginosa [6]): 30.8%
- MIC Range (Pseudomonas aeruginosa [6]; 507 isolates non-susceptible to meropenem (MIC>8 μg/mL)): 1-128
- MIC50 (Pseudomonas aeruginosa [6]): 32 µg/mL (≈ 66.6 µM)
- MIC90 (Pseudomonas aeruginosa [6]): 256 µg/mL (≈ 533 µM)
- % S@8 (Pseudomonas aeruginosa [7]): 0%
- MIC50 (Pseudomonas aeruginosa [7]): 32 µg/mL (≈ 66.6 µM)
- MIC90 (Pseudomonas aeruginosa [7]): 256 µg/mL (≈ 533 µM)
